Consider 10 molecules from patent US20190367516A1 (Bayer Pharma Aktiengesellschaft, priority 2015, published 2019).

Where two headings read alike, the source gives them in different places.

This test addresses T1, human M2 receptor (Homo sapiens, UniProt P08172).
T1 sequence (P08172 1-466): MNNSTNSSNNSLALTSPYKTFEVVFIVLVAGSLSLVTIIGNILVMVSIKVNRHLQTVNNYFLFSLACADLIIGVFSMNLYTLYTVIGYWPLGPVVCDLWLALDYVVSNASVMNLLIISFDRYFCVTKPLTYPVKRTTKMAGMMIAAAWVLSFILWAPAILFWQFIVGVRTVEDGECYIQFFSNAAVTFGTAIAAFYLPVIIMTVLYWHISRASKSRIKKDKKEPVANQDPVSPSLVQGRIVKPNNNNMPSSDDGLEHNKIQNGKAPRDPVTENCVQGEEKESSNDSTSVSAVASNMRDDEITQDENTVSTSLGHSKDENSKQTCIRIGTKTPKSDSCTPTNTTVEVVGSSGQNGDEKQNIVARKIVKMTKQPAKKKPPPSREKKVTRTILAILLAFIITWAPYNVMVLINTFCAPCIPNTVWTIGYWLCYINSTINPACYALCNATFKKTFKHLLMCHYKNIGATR
Conditions: for EC50: Receptor activity EC50, allosteric potency at EC20 acetylcholine, in some cases mean of two or more determinations.

[1] abbreviates: read-out: Efficiency, boosting of the acetylcholine effect at EC20 acetylcholine concentration, M2-GIRK1/4 reporter cells.

By EC50 is commonly meant the midpoint of the concentration-response curve. A low value points to a more potent agent. Molecule `O=C(Nc1c(Cl)cccc1Cl)c1cn(-c2c(F)cc(F)cc2F)c2nc(N3CCNC3=O)ccc2c1=O` [Example 613, N-(2,6-Dichlorophenyl)-4-oxo-7-(2-oxoimidazolidin-1-yl)-1-(2,4,6-trifluorophenyl)-1,4-dihydro-1,8-naphthyridine-3-carboxamide] gave a concentration giving a half-maximal response (EC50) (M2-GIRK1/4 reporter cells) of 0.033 µM. Also, under setting [1], the Emax was determined as 95.5%.
As to `CC(C)(NC(=O)c1cn(-c2c(F)cc(F)cc2F)c2nc(N3CCNC3=O)ccc2c1=O)C(F)F` [Example 614, N-(1,1-Difluoro-2-methylpropan-2-yl)-4-oxo-7-(2-oxoimidazolidin-1-yl)-1-(2,4,6-trifluorophenyl)-1,4-dihydro-1,8-naphthyridine-3-carboxamide], the midpoint of the response (M2-GIRK1/4 reporter cells), the EC50, lay at 0.036 µM. Also, the Emax under setting [1] was 94.5%.
As to `O=C(NC1(C(F)(F)F)CCC1)c1cn(-c2c(F)cc(F)cc2F)c2nc(N3C[C@@H](O)[C@H](O)C3)ccc2c1=O` [Example 625, 7-[(3R,4R)-3,4-Dihydroxypyrrolidin-1-yl]-4-oxo-N-[1-(trifluoromethyl)cyclobutyl]-1-(2,4,6-trifluorophenyl)-1,4-dihydro-1,8-naphthyridine-3-carboxamide], under “M2-GIRK1/4 reporter cells”, the concentration giving a half-maximal response (EC50) came out at 0.043 µM. Moreover, under setting [1], the Emax amounted to 100%.
Where the note is “M2-GIRK1/4 reporter cells”, `O=C(N[C@H](C1CC1)C(F)(F)F)c1cn(-c2c(F)cccc2F)c2nc(N3CCNC3=O)ccc2c1=O` [Example 629, N-[(1R)-1-Cyclopropyl-2,2,2-trifluoroethyl]-1-(2,6-difluorophenyl)-4-oxo-7-(2-oxoimidazolidin-1-yl)-1,4-dihydro-1,8-naphthyridine-3-carboxamide] gave a half-maximal effective concentration (EC50) of 0.044 µM. The Emax under setting [1] was 100%.
As for `O=C(N[C@@H](C1CC1)C(F)(F)F)c1cn(-c2c(F)cc(F)cc2F)c2nc(N3C[C@@H](O)[C@@H](O)C3)ccc2c1=O` [Example 630, N-[(1S)-1-Cyclopropyl-2,2,2-trifluoroethyl]-7-[(3R,4S)-3,4-dihydroxypyrrolidin-1-yl]-4-oxo-1-(2,4,6-trifluorophenyl)-1,4-dihydro-1,8-naphthyridine-3-carboxamide], a half-maximal effect (M2-GIRK1/4 reporter cells) (EC50) was put at 0.048 µM. The Emax (read-out: Efficiency) amounted to 100%.
Take `O=C(NC1(CC(F)(F)F)CC1)c1cn(-c2c(F)cc(F)cc2F)c2nc(N3C[C@@H](O)CC3=O)ccc2c1=O` [Example 632, 7-[(4S)-4-Hydroxy-2-oxopyrrolidin-1-yl]-4-oxo-N-[1-(2,2,2-trifluoroethyl)cyclopropyl]-1-(2,4,6-trifluorophenyl)-1,4-dihydro-1,8-naphthyridine-3-carboxamide]: it took 0.049 µM to reach a half-maximal effect (M2-GIRK1/4 reporter cells) (EC50). The Emax under setting [1] is 100%.
`COC(=O)N1CCN(c2ccc3c(=O)c(C(=O)NC45CC(C4)C5)cn(-c4c(F)cc(F)cc4F)c3n2)CC1` [Example 633, Methyl 4-[6-(bicyclo[1.1.1]pent-1-ylcarbamoyl)-5-oxo-8-(2,4,6-trifluorophenyl)-5,8-dihydro-1,8-naphthyridin-2-yl]piperazine-1-carboxylate]: for the setting “M2-GIRK1/4 reporter cells”, the response was half-maximal at 0.052 µM (EC50). Also, the Emax under setting [1] was found to be 93.8%.
In turn, `O=C(NC1(CC(F)(F)F)CC1)c1cn(-c2c(F)cc(F)cc2F)c2nc(N3C[C@@H](O)[C@H](O)C3)ccc2c1=O` [Example 635, 7-[(3R,4R)-3,4-Dihydroxypyrrolidin-1-yl]-4-oxo-N-[1-(2,2,2-trifluoroethyl)cyclopropyl]-1-(2,4,6-trifluorophenyl)-1,4-dihydro-1,8-naphthyridine-3-carboxamide] gave an EC50 (M2-GIRK1/4 reporter cells) of 0.059 µM. Moreover, the Emax under setting [1] was determined as 100%.
For the molecule `NC(=O)N1CCN(c2ccc3c(=O)c(C(=O)Nc4c(Cl)cccc4Cl)cn(-c4c(F)cc(F)cc4F)c3n2)CC1` [Example 636], the midpoint of the response (M2-GIRK1/4 reporter cells), the EC50, lay at 0.06 µM. Besides, the Emax under setting [1] is 98.1%.
For the setting “M2-GIRK1/4 reporter cells”, `CC[C@H](NC(=O)c1cn(-c2c(F)cccc2F)c2nc(N3CCNC3=O)ccc2c1=O)C(F)(F)F` [Example 637, 1-(2,6-Difluorophenyl)-4-oxo-7-(2-oxoimidazolidin-1-yl)-N-[(2)-1,1,1-trifluorobutan-2-yl]-1,4-dihydro-1,8-naphthyridine-3-carboxamide] gave an EC50 of 0.06 µM. Also, under setting [1], the Emax was determined as 93%.
